Legend:
[1] = UV-visible absorption and fluorescence spectra, fluorescence quantum yields in solution; type: physicochemical; conditions: for Quantum yield: methylene chloride solution, fluorescein standard (Table 10, Example 14)
Method: ^1H NMR and ^13C NMR spectra were taken on a 400 MHz Varian Unity Inova spectrophotometer instrument. ^1H and ^13C NMR spectra were recorded in CDCl3, chemical shifts (δ) are given in ppm relative to solvent peaks (1H: δ 7.26; 13C: δ 77.3) as internal standard. UV spectra were taken on a Hewlett Packard 8452A Diode Array UV-visible spectrophotometer. Fluorescence spectra were recorded on a Spex Fluorolog 1681 0.22 m steady-state fluorometer. Fluorescence quantum yields of BODIPY dyes and polymers were measured in methylene chloride and DMF, and calculated by using fluorescein excited at 490 nm in 0.1 N NaOH as the reference absolute quantum efficiency (φn=85%). Molecular weights of the polymers were determined by gel permeation chromatography (“GPC”) by using a Waters Associates Model 6000A liquid chromatograph. Three American Polymer Standards Corp. Ultrastyragel columns in series with porosity indices of 10^3, 10^4, and 10^5 Å were used and housed in an oven thermostated at 30° C. Mobile phase was HPLC grade THF which was filtered and degassed by vacuum filtration through a 0.5 μm fluoropore filter prior to use. The polymers were detected by a Waters Model 440 ultraviolet absorbance detector at a wavelength of 254 nm and a Waters Model 2410 refractive index detector. Molecular weights were measured relative to polystyrene standards. An Enraf Nonius CAD-4 X-Ray diffractometer was used in the crystal structure determination. The windows program WinGX was used as the interface for the solution and refinement of the model. The data were first reduced and corrected for absorption using the psi-scans, and then solved using the program SIR2004. The model was refined using SHELXL97.
(§1) ^1H NMR and ^13C NMR spectra were taken on a 400 MHz Varian Unity Inova spectrophotometer instrument. ^1H and ^13C NMR spectra were recorded in CDCl3, and chemical shifts (5) are given in ppm relative to solvent peaks (at 7.24 ppm for ^1H spectra and at 77.3 for ^13C spectra) as internal standard. UV spectra were taken on a Hewlett-Packard 8452A Diode Array UV-visible spectrophotometer. Fluorescence spectra were recorded on a Spex Fluorolog 1681 0.22 m steady-state fluorometer. Fluorescence quantum yields of BODIPY dyes and polymers were measured in methylene chloride and calculated by using fluorescein excited at 490 nm in 0.1 N NaOH as the reference (its quantum efficiency of 85%). Fluorescence lifetimes were measured on a GL-3300 Nitrogen Laser laserstrobe PTI instrument and analyzed using FeliX32 software.
^1H NMR and ^13C NMR spectra were taken on a 400 MHz Varian Unity Inova spectrophotometer instrument. ^1H and ^13C NMR spectra were recorded in CDCl3, chemical shifts (δ) are given in ppm relative to solvent peaks (^1H: δ 7.26; ^13C: δ 77.3) as internal standard. UV spectra were taken on a Hewlett Packard 8452A Diode Array UV-visible spectrophotometer. Fluorescence spectra were recorded on a Spex Fluorolog 1681 0.22 m steady-state fluorometer. Fluorescence quantum yields of BODIPY dyes and polymers were measured in methylene chloride and DMF, and calculated by using fluorescein excited at 490 nm in 0.1 N NaOH as the reference quantum efficiency (φn=85%).^30,31 Molecular weights of the polymers were determined by gel permeation chromatography (GPC) by using a Waters Associates Model 6000A liquid chromatograph. Three American Polymer Standards Corp. Ultrastyragel columns in series with porosity indices of 10^3, 10^4, and 10^5 Å were used and housed in an oven thermostated at 30° C. Mobile phase was HPLC grade THF which was filtered and degassed by vacuum filtration through a 0.5 μm fluoropore filter prior to use. The polymers were detected by a Waters Model 440 ultraviolet absorbance detector at a wavelength of 254 nm and a Waters Model 2410 refractive index detector. Molecular weights were measured relative to polystyrene standards. […]

[2] = Fluorescence lifetime measurement; type: physicochemical
Method: as §1
^1H NMR and ^13C NMR spectra were taken on a 400 MHz Varian Unity Inova spectrophotometer instrument. ^1H and ^13C NMR spectra were recorded in CDCl3, and chemical shifts (δ) are given in ppm relative to solvent peaks (^1H, δ 7.26; ^13C, δ 77.3) as internal standard. UV spectra were taken on a Hewlett-Packard 8452A Diode Array UV-visible spectrophotometer. Fluorescence spectra were recorded on a Spex Fluorolog 1681 0.22 m steady-state fluorometer. Fluorescence quantum yields of BODIPY dyes and polymers were measured in methylene chloride and calculated by using fluorescein exCIted at 490 nm in 0.1 N NaOH as the reference (quantum effiCIency, cPn=85%). Fluorescence lifetimes were measured on a 010-3300 Nitrogen Laser laserstrobe PTI instrument and analyzed using FeliX32 software. Molecular weights of the polymers were determined by gel permeation chromatography (OPC) by using a Waters AssoCIates model 6000A liquid chromatograph. Three American Polymer Standards Corp. ultrastyragel columns in series with porosity indices of 103, 104, and 105 A were used and housed in an oven thermostatted at 30° C. The mobile phase was HPLC grade THF which was filtered and degassed by vacuum filtration through a 0.5, urn fluoropore filter prior to use. The polymers were detected by a Waters Model 440 ultraviolet absorbance detector at a wavelength of 254 nm and a Waters Model 2410 refractive index detector. Molecular weights were determined relative to polystyrene standards.

[3] = methylene chloride solution (Table 9, Example 13)
[4] = methylene chloride solution (Table 10, Example 14)

## C#CC1=C(C)C2=C(c3ccc(OCCCCCCCCCCCC)cc3)c3c(C)c(C#C)c(C)n3[B-](F)(F)[N+]2=C1C [Compound 6a]
[1]; [3]
  Absorption maxima: 539 nm
  Emission maxima: 551 nm
  Stokes shift: 12 nm
[1]; [4]
  Absorption maxima: 538 nm
  Emission maxima: 552 nm
[1]
  Quantum yield: 63%
[2]; [3]
  Fluorescence lifetime: 3.6 ns
[2]; [4]
  Fluorescence lifetime: 4.2 ns

## C#CC1=C(C)C2=C(c3ccc(OCCCCCCCCCCCC)c(OCCCCCCCCCCCC)c3)c3c(C)c(C#C)c(C)n3[B-](F)(F)[N+]2=C1C [Compound 6b]
[1]; [3]
  Absorption maxima: 540 nm
  Emission maxima: 5.52 nm
  Stokes shift: 12 nm
[1]; [4]
  Absorption maxima: 539 nm
  Emission maxima: 553 nm
[1]
  Quantum yield: 67%
[2]; [3]
  Fluorescence lifetime: 3.9 ns
[2]; [4]
  Fluorescence lifetime: 5.9 ns

## C#CC1=C(C)C2=C(c3cc(OCCCCCCCCCCCC)c(OCCCCCCCCCCCC)c(OCCCCCCCCCCCC)c3)c3c(C)c(C#C)c(C)n3[B-](F)(F)[N+]2=C1C [Compound 6c]
[1]; [3]
  Absorption maxima: 541 nm
  Emission maxima: 553 nm
  Stokes shift: 12 nm
[2]; [3]
  Fluorescence lifetime: 3.0 ns

Reference: US9623123B2, “Fluorescent conjugated polymers with a bodipy-based backbone and uses thereof” (Michigan Technological University, priority 2008, dated 2017)
